Results taken from ChEMBL document CHEMBL3301361, “Experimental in vitro DMPK and physicochemical data on a set of publicly disclosed compounds”.
In brackets after ≈: the same amount, converted by molar mass.

Assays:
[1] = in vitro; details: SD, HW or BN, rat, plasma
[2] = in vitro; details: mouse, plasma
[3] = in vitro; details: human, plasma
[4] = physchem; details: octan-1-ol/water
[5] = in vitro; details: Beagle, dog, plasma
[6] = in vitro; details: human, microsomes
[7] = in vitro; details: hepatocytes
[8] = physchem
[9] = physchem; remark: listed apart in the source
[10] = physchem; details: pH 7.4 buffer
[11] = in vitro; details: human, hepatocytes

Row | fraction unbound at 5 h [1] | fraction unbound at 5 h [2] | fraction unbound at 5 h ([3]; PPB) | SMILES | further results
1 | 0.0909 | 0.11 |  | CCC(CC)[C@@H](CO)NS(=O)(=O)c1ccc(Cl)s1 [GSI-136] | 
2 |  | 0.0191 | 0.0447 | CC(C)S(=O)(=O)N(C)c1cc(C(=O)N[C@@H](Cc2ccccc2)[C@@H](N)CF)cc(NC[C@H]2C[C@@H]2C)n1 | 
3 |  | 0.0219 | 0.0099 | CC(C)NC(=O)c1nn(-c2ccc(Cl)cc2)c(=O)c2c(N)scc12 | 
4 |  | 0.0051 | 0.013 | O=C(CC1CCN(Cc2ccn(-c3ccc(C(F)(F)F)cc3)c2)CC1)NC(c1ccncc1)c1ccc(Cl)cc1 (stereo not given) | 
5 |  | 0.0005 |  | CC(C)Oc1ccc(-c2nc(-c3cccc4c(CCC(=O)O)c[nH]c34)no2)cc1Cl | 
6 | 0.0018 | 0.0013 |  | c1ccc2nc(COc3ccc(-c4n[nH]cc4-c4ccncc4)cc3)ccc2c1 | 
7 |  | 0.0005 |  | Fc1ccc(-c2cc(C3CCN(Cc4ccn(-c5ccc(C(F)(F)F)cc5)c4)CC3)no2)cc1 | 
8 |  |  | 0.0042 | N#Cc1ccc(NC(=O)Nc2ccccc2Br)c2nn[nH]c12 | logD ([4]; pH 7.4, LogD7.4): 1.64; fraction unbound at 5 h [5]: 0.0049; microsomal CLint [6]: 23 µL/min/mg; hepatocyte CLint [7]: 69 µL/min/1e6 cells; pKa [8]: 6.2
9 |  | 0.0023 | 0.0009 | Fc1ccc(-c2c[nH]c(C3CCN(Cc4ccn(-c5ccc(C(F)(F)F)cc5)c4)CC3)n2)cc1 | 
10 |  | 0.197 | 0.0293 | Cc1[nH]c(C(=O)NC2CCN(c3ncc(C(=O)O)s3)CC2)c(Cl)c1Cl | 
11 |  | 0.201 |  | C[C@@H](CC(=O)OC(C)(C)C)NC(=O)C1=NOC(C(O)(C(F)(F)F)C(F)(F)F)C1 (stereo not given in full) | 
12 |  | 0.005 | 0.001 | C[C@H](c1ccc(F)cc1CCCC(=O)O)N(c1cc(F)ccc1F)S(=O)(=O)c1ccc(Cl)cc1 | logD ([4]; pH 7.4, LogD7.4): 3.1
13 |  | 0.0409 | 0.0293 | NC1=NC(c2ccnc(C(F)(F)F)c2)(c2ccc(F)c(-c3cncnc3)c2)c2cccc(F)c21 (stereo not given) | 
14 | 0.0106 |  | 0.0029 | O=C(Nc1ccc(Cl)c(S(=O)(=O)N2CCNCC2)c1O)Nc1cccc(F)c1Cl [ELUBRIXIN] | pKa [9]: 8.5; logD ([4]; pH 7.4, LogD7.4): 2.6; solubility thermodynamic [10]: 457 µM (≈ 212 µg/mL); fraction unbound at 5 h [5]: 0.0127; hepatocyte CLint [7]: 41.4 µL/min/1e6 cells; hepatocyte CLint [11]: < 3 µL/min/1e6 cells; pKa [8]: 5.9
15 |  | 0.249 | 0.0836 | CN1C(=N)N[C@](C)(c2cc(-c3cccc(C#N)c3)cs2)CC1=O | 
16 | 0.0872 | 0.0854 |  | NC(=O)c1ccc(-n2nnnc2Oc2ccc(Br)cc2)cc1 | 
17 | 0.0042 |  | 0.0041 | CN(C)S(=O)(=O)NC(=O)CCCc1c(-c2ccc(F)cc2)[nH]c2ccc(C#N)cc12 | solubility thermodynamic [10]: 4.8 µM (≈ 2.06 µg/mL); fraction unbound at 5 h [5]: 0.0196; microsomal CLint [6]: 8.86 µL/min/mg; hepatocyte CLint [7]: < 3 µL/min/1e6 cells; pKa [8]: 5.5
18 |  | 0.0268 |  | COc1ccc(-c2cc(C(F)F)nn2-c2ccc(S(N)(=O)=O)cc2)cc1F [DERACOXIB] | logD ([4]; pH 7.4, LogD7.4): 2.8
19 | 0.899 |  | 0.849 | CCN(CC)CCNC(=O)c1ccc(NS(C)(=O)=O)cc1 [SEMATILIDE] | pKa [9]: 9.35; fraction unbound at 5 h [5]: 0.899; pKa [8]: 7.52
20 |  | 0.0119 | 0.003 | O=C(Nc1ccc(Cl)c(C(=O)Nc2cccnc2)c1)c1cccc(C(F)(F)F)c1 | 
21 | 0.0006 | 0.0007 |  | CCCn1c(=O)[nH]c2nc(-c3ccc(S(=O)(=O)N4CCN(Cc5ccc(Cl)cc5)CC4)cc3)[nH]c2c1=O | 
22 | 0.11 |  | 0.0736 | Cc1nn(C2CCOCC2)c(NS(=O)(=O)c2ccc(C3CC3)cc2)c1C(=O)N[C@@H](C)C(C)(C)C | logD ([4]; pH 7.4, LogD7.4): 1.23; fraction unbound at 5 h [5]: 0.107; pKa [8]: 5
23 |  | 0.0022 | 0.0008 | N#Cc1c(-c2ccc(-c3ccccc3Cl)cc2)nc2ccncc2c1O | 
24 |  | 0.0039 |  | CC(C)[C@@H]1CC[C@@H](C)C[C@@H]1P(=O)(c1ccccc1)c1ccccc1 | 
25 | 0.028 | 0.0581 |  | COc1cc(C(C)C)c(Oc2cnc(NC(CO)CO)nc2N)cc1I | 
26 | 0.0358 | 0.0251 |  | Cc1nc(-c2c(F)cc(Cl)cc2-c2cnc([C@@H](C)NC(=O)[C@@](C)(O)C(F)(F)F)c(F)c2)no1 | 

Row | SMILES | fraction unbound at 5 h [1] | fraction unbound at 5 h [2] | fraction unbound at 5 h ([3]; PPB) | further results
27 | CCCCCCC(=O)CCCCCC/C=C/C[C@@H](O)[C@H](O)[C@@](N)(CO)C(=O)O [MYRIOCIN] | 0.028 | 0.062 |  | 
28 | C[C@H]1CN(Cc2cc(Cl)ccc2OCC(=O)O)CCN1C(=O)Cc1ccccc1 | 0.11 |  |  | pKa [9]: 7; logD ([4]; pH 7.4): 0.18; fraction unbound at 5 h [3]: 0.0262; fraction unbound at 5 h [5]: 0.0784; microsomal CLint [6]: < 3 µL/min/mg; pKa [8]: 2.5
